Assay results: patent US11427783B2, “Perfuming compositions” (Firmenich SA, priority 2016, dated 2022)
Like-named read-outs stand apart in the source and are kept apart here. Each block holds one molecule with its values, some of them ahead of it.

Assay: Volatility of perfuming compounds in air
Type: physicochemical
[1] = Table 10, perfuming compounds having a woody note
[2] = Table 5, perfuming compounds having a green note
[3] = Table 6, perfuming compounds having a fruity note
[4] = Table 8, perfuming compounds having a sweet note
[5] = Table 9, perfuming compounds having a gourmand note

Volatility (μg/l air) [1]: 29.81 μg/l air
Molecule: CC1C(C)(C)C2=C(C(=O)CCC2)C1(C)C (centres unmarked)

Volatility (μg/l air) [1]: 3.82 μg/l air
Molecule: CCC(C)C1(C)COC(C2CCC(C)=CC2C)OC1 (centres unmarked)

Volatility (μg/l air) [3]: 113.83 μg/l air
Molecule: CC1CC(C)(c2ccccc2)OC(C)O1 (centres unmarked)

Volatility (μg/l air) [1]: 9.23 μg/l air
Molecule: CC1(C)CCC[C@@]2(C)[C@H]1CC[C@@]1(C)OCC[C@@H]21

Volatility (μg/l air) [1]: 1311.32 μg/l air
Molecule: COC(OC)C(C)(C)CC=C(C)C

Volatility (μg/l air) [1]: 735.37 μg/l air
Molecule: CC(=O)O[C@@H]1CC2CC[C@]1(C)C2(C)C

Volatility [2]: 1247.28 μg/l air
Molecule: C=C/C=C/C=C\CCCCC

Volatility (μg/l air) [1]: 20.41 μg/l air
Molecule: CC1=CCC(/C=C/C(C)C(C)O)C1(C)C (centres unmarked)

Volatility (μg/l air) [1]: 0.00 μg/l air
Molecule: C[C@@H]1CC[C@H]2C(C)(C)[C@H]3C[C@@]12C[C@@H]1OC(C)(C)O[C@@]13C

Volatility (μg/l air) [3]: 4.14 μg/l air | Volatility (μg/l air) [1]: 4.14 μg/l air
Molecule: C[C@H]1[C@@H]2C[C@H](C[C@@]13C=CC(=O)CC3)C2(C)C

Volatility (μg/l air) [1]: 3.42 μg/l air
Molecule: CCCC(O)CCC1C(C)CCC(C)C1(C)C (racemic)

Volatility (μg/l air) [1]: 135.00 μg/l air
Molecule: C=C1C2CCC(C)(OCC)C1CCC2(C)C (racemic)

Volatility [2]: 421.15 μg/l air
Molecule: CCC(C)(O)CCCC(C)C (racemic)

Volatility [2]: 278.83 μg/l air
Molecule: COC(=O)OC1CC/C=C\CCC1 (racemic)

Volatility (μg/l air) [4]: 152.99 μg/l air | Volatility (μg/l air) [5]: 152.99 μg/l air
Molecule: C=C1CCCC(C)(C)C1C(=O)/C=C/C (racemic)

Volatility (μg/l air) [3]: 36.33 μg/l air | Volatility (μg/l air) [1]: 106.28 μg/l air
Molecule: CC(=O)/C(C)=C/C1C(C)=CCCC1(C)C (racemic)

Volatility [2]: 2534.77 μg/l air
Molecule: CCCC(S)CCOC (racemic) [(+−)-1-METHOXY-3-HEXANETHIOL]

Volatility [2]: 12045.92 μg/l air
Molecule: CC(CC=O)CC(C)(C)C (racemic) [(+−)-3,5,5-TRIMETHYLHEXANAL]

Volatility (μg/l air) [3]: 21.05 μg/l air | Volatility (μg/l air) [4]: 21.05 μg/l air | Volatility (μg/l air) [5]: 21.05 μg/l air
Molecule: CCCCC[C@@H]1OC(=O)C[C@H]1C (racemic) [(+−)-TRANS-3-METHYL-4-NONANOLIDE]

Volatility (μg/l air) [3]: 4.39 μg/l air
Molecule: CCC(=O)OCC(C)(C)OC(C)C1CCCC(C)(C)C1 (single isomer, unassigned; (+))

Volatility (μg/l air) [3]: 34.65 μg/l air | Volatility (μg/l air) [4]: 34.65 μg/l air | Volatility (μg/l air) [5]: 34.65 μg/l air
Molecule: CCCC(=O)OC(C)(C)Cc1ccccc1 [1,1-DIMETHYL-2-PHENYLETHYL BUTANOATE]

Volatility [2]: 2070.00 μg/l air
Molecule: CCCCCCO [1-hexanol]

Volatility (μg/l air) [4]: 1728.98 μg/l air
Molecule: CC(=O)c1ccccc1 [1-phenylethanone]

Volatility (μg/l air) [4]: 19.23 μg/l air | Volatility (μg/l air) [5]: 19.23 μg/l air
Molecule: COc1cccc(OC)c1O [2,6-DIMETHOXYPHENOL]

Volatility [2]: 3.83 μg/l air
Molecule: c1ccc(CCCc2ccccn2)cc1 [2-(3-PHENYLPROPYL)PYRIDINE]

Volatility (μg/l air) [4]: 2.36 μg/l air
Molecule: Cc1ncsc1CCO [2-(4-METHYL-1,3-THIAZOL-5-YL)-1-ETHANOL]

Volatility (μg/l air) [4]: 489.45 μg/l air | Volatility (μg/l air) [5]: 489.45 μg/l air
Molecule: CC(=O)OCCC1CCCCC1 [2-CYCLOHEXYLETHYL ACETATE]

Volatility (μg/l air) [3]: 48.86 μg/l air | Volatility (μg/l air) [4]: 48.86 μg/l air
Molecule: CCc1occc(=O)c1O [2-ETHYL-3-HYDROXY-4(4H)-PYRANONE]

Volatility (μg/l air) [4]: 306.61 μg/l air
Molecule: COc1cc(C)ccc1O [2-METHOXY-4-METHYLPHENOL]

More lines, now with the values behind:

Molecule: CC1CC(C)(C)OC(Cc2ccccc2)O1 (centres unmarked)
Volatility [2]: 29.99 μg/l air

Molecule: COc1nccnc1CCCC(C)C
Volatility [2]: 195.24 μg/l air

Molecule: CC(=O)OCCC1=CCC2CC1C2(C)C (centres unmarked)
Volatility (μg/l air) [1]: 60.02 μg/l air

Molecule: CC(C)=CC1CC(C)CCO1 (centres unmarked)
Volatility [2]: 2483.93 μg/l air

Molecule: CC1=CC[C@H](C(C)CC2CCCC2=O)CC1 (some centres unmarked)
Volatility (μg/l air) [3]: 2.05 μg/l air | Volatility (μg/l air) [4]: 2.05 μg/l air | Volatility (μg/l air) [5]: 2.05 μg/l air

Molecule: CC1(CO)CC1CC1CC2CC2(C)C1(C)C (centres unmarked)
Volatility (μg/l air) [1]: 1.74 μg/l air

Molecule: Cc1ccc(OCC=O)cc1
Volatility [2]: 89.41 μg/l air

Molecule: CC(C)=CCC/C(C)=C/CO
Volatility (Table 7, citrus note): 89.88 μg/l air

Molecule: CC(C)=CCC/C(C)=C\CO
Volatility (Table 7, citrus note): 86.02 μg/l air

Molecule: C=C(C)[C@@H]1CC=C(CO)CC1
Volatility [2]: 33.78 μg/l air

Molecule: 3,7-DIMETHYL-2,6-NONADIENENITRILE (A) + 3,7-DIMETHYL-3,6-NONADIENENITRILE (B)
Volatility [2]: 78.89 μg/l air

Molecule: CCC(O)COC1CCCCC1C(C)(C)C (racemic)
Volatility (μg/l air) [1]: 205.05 μg/l air

Molecule: CCC(=CCC1CC=C(C)C1(C)C)CO (racemic)
Volatility (μg/l air) [1]: 3.69 μg/l air

Molecule: CC1OCCC12NCCS2 (racemic)
Volatility (μg/l air) [4]: 52.47 μg/l air

Molecule: COC(C)(C)CCCC(C)C(C)O (racemic)
Volatility (μg/l air) [1]: 35.54 μg/l air

Molecule: COC(=O)C1C(C)=CCCC1(C)C (racemic)
Volatility [2]: 2010.91 μg/l air

Molecule: CC1CCCC2(C)CCCCC12O (racemic)
Volatility [2]: 330.48 μg/l air

Molecule: CC(=O)/C(C)=C(/C)C(C)C(C)(C)C (racemic)
Volatility (μg/l air) [1]: 659.22 μg/l air

Molecule: CCCCCC1CCCC1O (racemic) [(+−)-2-PENTYL-1-CYCLOPENTANOL]
Volatility (μg/l air) [4]: 97.79 μg/l air

Molecule: CCC(C)C(=O)OCCc1ccccc1 (racemic) [(+−)-2-PHENYLETHYL 2-METHYLBUTANOATE]
Volatility (μg/l air) [3]: 37.73 μg/l air

Molecule: CC(CC=O)c1ccccc1 (racemic) [(+−)-3-PHENYLBUTANAL]
Volatility [2]: 227.83 μg/l air

Molecule: CCCCCCC1CCC(=O)O1 (racemic) [(+−)-4-DECANOLIDE]
Volatility (μg/l air) [3]: 10.49 μg/l air | Volatility (μg/l air) [4]: 10.49 μg/l air | Volatility (μg/l air) [5]: 10.49 μg/l air

Molecule: CCCC1CCC(=O)O1 (racemic) [(+−)-4-HEPTANOLIDE]
Volatility (μg/l air) [4]: 295.34 μg/l air

Molecule: CCCCCC1CCC(=O)O1 (racemic) [(+−)-4-NONANOLIDE]
Volatility (μg/l air) [3]: 27.42 μg/l air | Volatility (μg/l air) [5]: 27.42 μg/l air

Molecule: CCCCC1CCC(=O)O1 (racemic) [(+−)-4-OCTANOLIDE]
Volatility (μg/l air) [3]: 108.41 μg/l air | Volatility (μg/l air) [5]: 108.41 μg/l air

Molecule: CC1=CCC(C(C)(C)O)CC1 (racemic) [(+−)-ALPHA-TERPINEOL]
Volatility (μg/l air) [1]: 172.78 μg/l air

Molecule: COC(OC)C(C)c1ccccc1 (centres unmarked) [1,1-DIMETHOXY-2-PHENYLPROPANE]
Volatility [2]: 376.94 μg/l air

Molecule: COc1ccc(C(C)=O)cc1 [1-(4-METHOXYPHENYL)-1-ETHANONE”]
Volatility [2]: 50.21 μg/l air

Molecule: CCCCCCCCCCO [1-DECANOL]
Volatility [2]: 31.90 μg/l air

Molecule: CCCOC(C)OCCc1ccccc1 (centres unmarked) [1-PHENYL-2-(1-PROPOXYETHOXY)ETHANE]
Volatility [2]: 59.63 μg/l air

Molecule: Cc1cnc(C)c(C)n1 [2,3,5-TRIMETHYLPYRAZINE]
Volatility (μg/l air) [4]: 7897.31 μg/l air

Molecule: O=c1ccc2ccccc2o1 [2-CHROMENONE]
Volatility (μg/l air) [4]: 0.51 μg/l air | Volatility (μg/l air) [5]: 0.51 μg/l air

Molecule: SCc1ccco1 [2-FURANMETHANETHIOL]
Volatility (μg/l air) [4]: 29677.31 μg/l air

Molecule: CC1=C(O)C(=O)CC1 [2-HYDROXY-3-METHYL-2-CYCLOPENTEN-1-ONE]
Volatility (μg/l air) [4]: 396.50 μg/l air

Molecule: CC(C)Cc1ccc2ccccc2n1 [2-ISOBUTYLQUINOLINE]
Volatility (μg/l air) [4]: 8.73 μg/l air

Molecule: CCCC1CCC(O)C(OC)C1 (centres unmarked) [2-METHOXY-4-PROPYL-1-CYCLOHEXANOL]
Volatility: 189.74 μg/l air

Molecule: CCCC(=NO)C(C)C [2-METHYL-3-HEXANONE OXIME]
Volatility [2]: 687.75 μg/l air
